{"source": "ChEMBL document CHEMBL1201862", "about": "“PubChem BioAssay data set” (2004)", "key": {"[1]": {"assay": "cytotoxicity in MIN6 insulinoma cells, dose response, cytotoxicity control, cell-based, mouse insulinoma (AID 2122);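 further: confirmatory high-throughput counterscreen run to flag cytotoxic compounds; mouse MIN-6 beta cells carrying an insulin promoter eGFP reporter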", "type": "functional"}, "[2]": {"assay": "insulin promoter down-regulators in MIN6 cells, imaging, high-content screening, mouse beta cells (AID 1628)", "type": "functional"}, "[3]": {"assay": "Luminescence Cell-Based Dose Retest to Confirm Inhibitors of Cancer Stem Cells. [Related pubchem assays (depositor defined):AID2717, AID2721]", "type": "functional", "conditions": "Homo sapiens"}, "[4]": {"molecular_target": "T1, CAAX prenyl protease 2 (Saccharomyces cerevisiae S288c, UniProt Q03530)", "T1 sequence (Q03530 whole entry)": "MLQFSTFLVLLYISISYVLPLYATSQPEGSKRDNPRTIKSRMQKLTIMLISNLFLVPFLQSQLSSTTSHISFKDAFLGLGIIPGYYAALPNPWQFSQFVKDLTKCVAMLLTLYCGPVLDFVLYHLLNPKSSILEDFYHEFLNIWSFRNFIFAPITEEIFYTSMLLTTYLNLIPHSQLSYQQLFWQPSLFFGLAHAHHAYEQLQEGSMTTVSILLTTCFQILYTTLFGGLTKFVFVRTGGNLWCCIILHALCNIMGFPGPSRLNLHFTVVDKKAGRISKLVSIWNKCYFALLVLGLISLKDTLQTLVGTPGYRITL", "type": "biochemical"}, "[5]": {"molecular_target": "CAAX prenyl protease 1 (Saccharomyces cerevisiae S288c, UniProt P47154)", "sequence (P47154 whole entry)": "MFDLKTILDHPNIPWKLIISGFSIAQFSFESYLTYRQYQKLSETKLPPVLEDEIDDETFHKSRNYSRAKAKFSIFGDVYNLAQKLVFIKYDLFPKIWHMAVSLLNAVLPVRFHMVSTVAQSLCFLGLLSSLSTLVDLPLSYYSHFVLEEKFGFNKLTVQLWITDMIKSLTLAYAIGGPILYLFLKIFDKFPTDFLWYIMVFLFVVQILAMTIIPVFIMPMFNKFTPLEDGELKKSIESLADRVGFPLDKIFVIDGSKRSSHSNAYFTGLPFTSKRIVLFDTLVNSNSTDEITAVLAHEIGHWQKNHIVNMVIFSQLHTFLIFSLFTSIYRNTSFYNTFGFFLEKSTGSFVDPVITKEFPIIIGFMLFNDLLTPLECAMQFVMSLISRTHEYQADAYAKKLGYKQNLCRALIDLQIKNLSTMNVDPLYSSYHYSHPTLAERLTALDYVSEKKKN", "assay": "Ste24 protease inhibitors, dose response, biochemical, S. cerevisiae, plate reader, cherry-pick (AID 488815)"}, "[6]": {"molecular_target": "Trypsin (Sus scrofa, UniProt P00761)", "sequence (P00761 whole entry)": "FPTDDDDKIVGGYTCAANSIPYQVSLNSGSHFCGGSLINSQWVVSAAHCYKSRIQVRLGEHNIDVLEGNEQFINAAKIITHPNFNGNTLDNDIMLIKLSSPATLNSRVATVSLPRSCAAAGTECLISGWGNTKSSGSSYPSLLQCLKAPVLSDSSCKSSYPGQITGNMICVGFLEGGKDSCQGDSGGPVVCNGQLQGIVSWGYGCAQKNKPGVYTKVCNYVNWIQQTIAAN", "assay": "porcine trypsin inhibitors, dose response, selectivity assay for Rce1 protease inhibitor project, biochemical, quenched peptide fluorescence, cherry-pick (AID 488789)"}, "[7]": {"molecular_target": "Phosphomannomutase 2 (Homo sapiens, UniProt O15305)", "sequence (O15305 whole entry)": "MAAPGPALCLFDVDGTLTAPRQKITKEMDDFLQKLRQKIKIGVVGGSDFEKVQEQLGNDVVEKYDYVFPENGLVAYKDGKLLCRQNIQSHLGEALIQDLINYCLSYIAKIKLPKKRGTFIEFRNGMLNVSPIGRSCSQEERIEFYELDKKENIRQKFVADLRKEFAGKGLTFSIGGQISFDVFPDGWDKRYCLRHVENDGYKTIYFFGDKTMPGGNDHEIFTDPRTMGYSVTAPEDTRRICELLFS", "assay": "Counter screen SAR assay for PMM2 inhibitors via a fluorescence intensity assay. [Related pubchem assays (depositor defined):AID1545, AID1574]"}, "[8]": {"molecular_target": "T2, Mannose-6-phosphate isomerase (Homo sapiens, UniProt P34949)", "T2 sequence (P34949 whole entry)": "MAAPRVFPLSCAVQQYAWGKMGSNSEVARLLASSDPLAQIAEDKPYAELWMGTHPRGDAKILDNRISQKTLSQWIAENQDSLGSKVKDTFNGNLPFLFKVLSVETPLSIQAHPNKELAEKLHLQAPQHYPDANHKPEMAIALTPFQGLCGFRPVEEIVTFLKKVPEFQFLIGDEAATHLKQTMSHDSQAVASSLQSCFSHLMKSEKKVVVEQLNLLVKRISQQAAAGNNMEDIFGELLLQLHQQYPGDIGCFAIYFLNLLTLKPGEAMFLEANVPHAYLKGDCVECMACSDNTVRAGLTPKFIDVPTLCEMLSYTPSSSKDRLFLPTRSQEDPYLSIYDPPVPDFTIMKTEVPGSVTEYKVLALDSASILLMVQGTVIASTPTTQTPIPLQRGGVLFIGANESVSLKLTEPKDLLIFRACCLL", "assay": "PMI enzyme inhibitors, confirmation, biochemical, fluorescence intensity (AID 1535)"}, "[9]": {"assay": "cytotoxicity toward NIH3T3 fibroblasts, dose response, counter-screen, cell-based, ATP luminescence, mouse fibroblasts (AID 2010);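 further: cells exposed to compound for about 90 hours before reading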", "type": "functional"}, "[10]": {"assay": "inhibitors of intracellular T. cruzi replication, confirmation, NIH3T3 host cells, beta-gal luminescence (AID 2044);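 further: luminescent beta-galactosidase reporter signal from transgenic T. cruzi replicating inside host cells; inhibitors lower the luminescence signal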", "type": "functional, cell-based"}, "[11]": {"molecular_target": "DNA dC->dU-editing enzyme APOBEC-3A (Homo sapiens, UniProt P31941)", "sequence (P31941 whole entry)": "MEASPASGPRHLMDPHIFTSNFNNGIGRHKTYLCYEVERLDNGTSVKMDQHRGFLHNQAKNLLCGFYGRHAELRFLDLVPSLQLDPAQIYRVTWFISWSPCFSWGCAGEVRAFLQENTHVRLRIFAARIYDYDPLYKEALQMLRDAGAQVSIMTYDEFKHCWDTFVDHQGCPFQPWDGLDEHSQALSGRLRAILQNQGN", "assay": "APOBEC3A DNA deaminase inhibitors, dose response, biochemical (AID 504722)", "type": "functional"}, "[12]": {"molecular_target": "DNA dC->dU-editing enzyme APOBEC-3G (Homo sapiens, UniProt Q9HC16)", "sequence (Q9HC16 whole entry)": "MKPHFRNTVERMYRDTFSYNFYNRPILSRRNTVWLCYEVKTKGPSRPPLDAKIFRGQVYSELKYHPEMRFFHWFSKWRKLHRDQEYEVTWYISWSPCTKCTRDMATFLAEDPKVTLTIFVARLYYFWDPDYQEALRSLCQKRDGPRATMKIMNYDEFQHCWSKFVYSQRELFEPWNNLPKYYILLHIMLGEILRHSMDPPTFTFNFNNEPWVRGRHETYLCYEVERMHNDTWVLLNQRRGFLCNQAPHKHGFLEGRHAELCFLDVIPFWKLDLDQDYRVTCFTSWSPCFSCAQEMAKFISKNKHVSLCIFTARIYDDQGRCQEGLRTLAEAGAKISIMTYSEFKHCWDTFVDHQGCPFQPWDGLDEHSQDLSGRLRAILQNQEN", "assay": "Dose Response confirmation of small molecule APOBEC3G DNA Deaminase Inhibitors via a fluorescence-based single-stranded DNA deaminase assay. [Related pubchem assays (depositor defined):AID493012, AID493028]", "type": "functional"}, "[13]": {"molecular_target": "T3, Replicative DNA helicase DnaB (Mycobacterium tuberculosis, UniProt P9WMR3)", "T3 sequence (P9WMR3 whole entry)": "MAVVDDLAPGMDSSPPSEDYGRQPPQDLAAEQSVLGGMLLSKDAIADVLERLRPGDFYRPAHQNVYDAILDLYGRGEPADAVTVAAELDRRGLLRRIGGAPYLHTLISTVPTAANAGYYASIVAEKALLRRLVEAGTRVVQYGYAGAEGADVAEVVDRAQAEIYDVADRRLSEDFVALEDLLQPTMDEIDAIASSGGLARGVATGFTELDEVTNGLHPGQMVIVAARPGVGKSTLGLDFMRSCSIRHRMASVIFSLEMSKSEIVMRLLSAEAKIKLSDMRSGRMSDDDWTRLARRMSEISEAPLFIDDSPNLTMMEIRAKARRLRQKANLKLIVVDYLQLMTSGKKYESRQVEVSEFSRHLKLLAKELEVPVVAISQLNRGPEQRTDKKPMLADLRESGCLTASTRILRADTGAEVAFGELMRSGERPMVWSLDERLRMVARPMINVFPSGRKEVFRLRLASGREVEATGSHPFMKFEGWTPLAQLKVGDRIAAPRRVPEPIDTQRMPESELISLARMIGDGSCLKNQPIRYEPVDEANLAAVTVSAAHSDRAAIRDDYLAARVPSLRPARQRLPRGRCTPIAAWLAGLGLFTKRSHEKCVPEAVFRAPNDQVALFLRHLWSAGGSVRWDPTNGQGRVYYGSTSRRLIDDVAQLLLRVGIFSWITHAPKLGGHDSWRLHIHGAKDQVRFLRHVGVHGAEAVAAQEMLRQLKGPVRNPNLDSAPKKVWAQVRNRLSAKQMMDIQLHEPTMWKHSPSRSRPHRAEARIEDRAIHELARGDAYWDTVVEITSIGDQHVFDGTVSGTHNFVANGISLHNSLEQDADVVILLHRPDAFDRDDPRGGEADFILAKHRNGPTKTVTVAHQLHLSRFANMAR", "assay": "DnaB intein splicing inhibitors, dose response, biochemical, cell-free fluorescence (AID 449749)", "type": "functional"}, "[14]": {"molecular_target": "T4, Tyrosine-protein phosphatase non-receptor type 22 (Homo sapiens, UniProt Q9Y2R2)", "T4 sequence (Q9Y2R2 whole entry)": "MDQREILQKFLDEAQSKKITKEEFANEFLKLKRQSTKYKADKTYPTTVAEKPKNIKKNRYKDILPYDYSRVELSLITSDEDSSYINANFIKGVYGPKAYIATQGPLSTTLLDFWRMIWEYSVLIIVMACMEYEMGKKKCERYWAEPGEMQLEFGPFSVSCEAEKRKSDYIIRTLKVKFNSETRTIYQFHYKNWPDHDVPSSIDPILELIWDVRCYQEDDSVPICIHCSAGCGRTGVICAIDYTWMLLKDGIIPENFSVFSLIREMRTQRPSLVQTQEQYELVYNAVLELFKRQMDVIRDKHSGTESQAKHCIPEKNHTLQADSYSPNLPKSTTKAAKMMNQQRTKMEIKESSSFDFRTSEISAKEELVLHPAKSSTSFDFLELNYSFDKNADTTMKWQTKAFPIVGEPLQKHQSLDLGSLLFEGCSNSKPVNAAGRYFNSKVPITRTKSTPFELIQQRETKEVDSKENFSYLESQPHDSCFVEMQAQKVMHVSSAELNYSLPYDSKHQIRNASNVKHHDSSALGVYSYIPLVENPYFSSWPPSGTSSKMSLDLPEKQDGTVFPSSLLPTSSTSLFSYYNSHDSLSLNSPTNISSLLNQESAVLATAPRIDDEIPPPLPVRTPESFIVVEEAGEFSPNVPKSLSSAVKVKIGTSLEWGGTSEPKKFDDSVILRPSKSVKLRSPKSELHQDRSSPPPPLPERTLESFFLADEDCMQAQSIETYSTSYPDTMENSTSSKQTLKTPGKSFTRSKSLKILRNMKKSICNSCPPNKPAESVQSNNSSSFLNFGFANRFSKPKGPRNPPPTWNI", "assay": "LYP (PTPN22) phosphatase inhibitor potency, SAR follow-up, biochemical, pCAP fluorogenic substrate, fluorescence, set 3 (AID 449727)", "type": "functional"}, "[15]": {"molecular_target": "T5, G-protein coupled receptor 35 (Homo sapiens, UniProt Q9HC97)", "T5 sequence (Q9HC97 whole entry)": "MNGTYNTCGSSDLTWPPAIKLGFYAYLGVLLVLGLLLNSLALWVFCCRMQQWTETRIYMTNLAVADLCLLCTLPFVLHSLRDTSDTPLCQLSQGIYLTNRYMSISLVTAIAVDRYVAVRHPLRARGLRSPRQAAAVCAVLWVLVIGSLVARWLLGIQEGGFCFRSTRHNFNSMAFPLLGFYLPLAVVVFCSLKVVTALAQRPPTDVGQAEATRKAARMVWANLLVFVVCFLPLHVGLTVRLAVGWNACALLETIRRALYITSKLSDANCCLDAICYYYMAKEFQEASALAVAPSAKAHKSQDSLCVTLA", "assay": "GPR35 antagonists blocking zaprinast-driven arrestin recruitment, primary screen, imaging, U2OS, beta-arrestin-GFP, zaprinast agonist (AID 2058);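 further: antagonist potency meaning inhibition of agonist-induced arrestin redistribution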", "type": "functional"}, "[16]": {"molecular_target": "T6, Protein RecA (Mycobacterium tuberculosis, UniProt P9WHJ3)", "T6 sequence (P9WHJ3 whole entry)": "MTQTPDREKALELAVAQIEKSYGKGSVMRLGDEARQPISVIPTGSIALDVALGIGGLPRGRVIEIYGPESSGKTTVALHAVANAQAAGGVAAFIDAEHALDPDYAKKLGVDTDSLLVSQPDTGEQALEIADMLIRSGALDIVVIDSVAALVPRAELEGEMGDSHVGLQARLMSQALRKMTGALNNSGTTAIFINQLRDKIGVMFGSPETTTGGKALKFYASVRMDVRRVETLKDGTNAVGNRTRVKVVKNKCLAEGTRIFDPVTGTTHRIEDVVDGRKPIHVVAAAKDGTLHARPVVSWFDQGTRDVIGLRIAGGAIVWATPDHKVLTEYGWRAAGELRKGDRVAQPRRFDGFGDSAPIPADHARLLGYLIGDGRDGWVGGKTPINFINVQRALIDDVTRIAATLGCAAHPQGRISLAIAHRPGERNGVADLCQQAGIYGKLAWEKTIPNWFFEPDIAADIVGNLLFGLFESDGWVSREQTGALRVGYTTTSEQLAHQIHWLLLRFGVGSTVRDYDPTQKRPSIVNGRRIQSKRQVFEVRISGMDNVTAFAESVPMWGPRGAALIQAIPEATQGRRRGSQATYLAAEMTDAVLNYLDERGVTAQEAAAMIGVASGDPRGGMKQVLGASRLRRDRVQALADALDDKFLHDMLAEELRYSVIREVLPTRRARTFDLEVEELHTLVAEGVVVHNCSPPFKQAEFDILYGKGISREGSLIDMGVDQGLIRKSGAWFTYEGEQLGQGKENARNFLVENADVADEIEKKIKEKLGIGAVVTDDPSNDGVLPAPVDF", "assay": "Fluorescence Cell-Free Homogeneous Dose Retest to Identify Inhibitors of RecA-Intein Splicing Activity. [Related pubchem assays (depositor defined):AID2097, AID2223, AID489010, AID492950]", "type": "functional"}, "[17]": {"molecular_target": "Tyrosine-protein phosphatase non-receptor type 12 (Homo sapiens, UniProt Q05209)", "sequence (Q05209 whole entry)": "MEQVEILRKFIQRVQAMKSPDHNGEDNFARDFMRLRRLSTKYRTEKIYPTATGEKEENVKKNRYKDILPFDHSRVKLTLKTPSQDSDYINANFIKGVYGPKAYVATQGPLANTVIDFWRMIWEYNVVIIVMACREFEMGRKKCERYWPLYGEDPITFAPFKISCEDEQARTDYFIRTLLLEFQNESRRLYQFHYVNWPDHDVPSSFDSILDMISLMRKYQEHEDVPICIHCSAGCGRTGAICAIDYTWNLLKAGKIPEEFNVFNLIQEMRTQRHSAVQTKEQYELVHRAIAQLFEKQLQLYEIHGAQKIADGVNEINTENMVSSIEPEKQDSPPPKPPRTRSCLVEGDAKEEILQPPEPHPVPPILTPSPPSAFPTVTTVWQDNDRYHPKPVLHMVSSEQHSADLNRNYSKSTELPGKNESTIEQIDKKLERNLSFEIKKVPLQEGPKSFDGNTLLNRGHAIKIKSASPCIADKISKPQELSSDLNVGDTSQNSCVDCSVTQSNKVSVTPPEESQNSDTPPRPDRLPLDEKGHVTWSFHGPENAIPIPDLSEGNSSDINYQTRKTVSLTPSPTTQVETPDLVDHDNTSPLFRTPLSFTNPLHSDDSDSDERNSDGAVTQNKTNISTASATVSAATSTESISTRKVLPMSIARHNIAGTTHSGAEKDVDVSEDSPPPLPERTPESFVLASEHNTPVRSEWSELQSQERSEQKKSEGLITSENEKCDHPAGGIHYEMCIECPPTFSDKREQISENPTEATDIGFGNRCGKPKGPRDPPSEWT", "assay": "SAR Selectivity Analysis of small molecule inhibitors of PEST using pCAP in a fluorescence assay. [Related pubchem assays (depositor defined):AID1779, AID1784, AID2135]", "type": "functional"}, "[18]": {"molecular_target": "T4, Tyrosine-protein phosphatase non-receptor type 22", "assay": "SAR LYP1 Fluorescent Assay using OMFP substrate for In Vitro dose response studies - Set 3. [Related pubchem assays (depositor defined):AID1779, AID1784, AID2140, AID2686]", "type": "functional"}, "[19]": {"molecular_target": "T5, G-protein coupled receptor 35", "assay": "SAR Analysis for the identification of Selective Antagonists of ERK1/2 Activity in GPR35-Overexpressing U2OS Cells. [Related pubchem assays: 2079, 2058 ]", "type": "functional, cell-based"}, "[20]": {"molecular_target": "G-protein coupled receptor 55 (Homo sapiens, UniProt Q9Y2T6)", "sequence (Q9Y2T6 whole entry)": "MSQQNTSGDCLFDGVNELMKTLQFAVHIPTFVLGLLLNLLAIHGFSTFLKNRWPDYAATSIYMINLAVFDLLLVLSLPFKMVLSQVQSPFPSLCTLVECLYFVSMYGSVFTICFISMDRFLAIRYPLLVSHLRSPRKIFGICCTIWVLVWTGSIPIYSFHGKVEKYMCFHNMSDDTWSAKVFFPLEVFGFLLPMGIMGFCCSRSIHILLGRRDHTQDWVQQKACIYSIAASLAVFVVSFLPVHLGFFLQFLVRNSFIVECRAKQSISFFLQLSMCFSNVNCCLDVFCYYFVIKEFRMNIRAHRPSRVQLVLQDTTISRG", "assay": "GPR55 antagonists, SAR follow-up, counter-screen for GPR35 antagonist project, imaging, image-based (AID 2397)", "type": "functional"}}, "note": "Calls of active or inactive are those of the source."}
{"compound": "COc1c(Cl)cc(Cl)cc1/C=C/C(=O)c1ccc(NC(=O)c2cccs2)cc1", "values": [{"measurement": "IC50", "setting": "[1]", "result": "1.35 µM (active)"}, {"measurement": "IC50", "setting": "[2]", "result": "2.56 µM (active)"}, {"measurement": "AC50", "setting": "[3]", "result": "1.12 µM (active)"}]}
{"compound": "CC(C)c1cc(=O)oc2c3c4c(cc12)CCCN4CCC3", "values": [{"measurement": "AC50", "setting": "[4]", "result": "> 100 µM (inactive)"}, {"measurement": "AC50", "setting": "[5]", "result": "4 µM (active)"}, {"measurement": "AC50", "setting": "[6]", "result": "24.1 µM (active)"}]}
{"compound": "Cc1ccc(/N=c2\\ssnc2Cl)cc1[N+](=O)[O-]", "values": [{"measurement": "IC50", "setting": "[7]", "result": "> 100 µM (inactive)"}, {"measurement": "IC50", "setting": "[8]", "result": "4.46 µM (active)"}]}
{"compound": "CN1/C(=C/C(=S)NC(=O)C2(C)CC2(Cl)Cl)C(C)(C)c2ccccc21", "note": "(centres undefined)", "values": [{"measurement": "IC50", "setting": "[1]", "result": "0.851 µM (active)"}, {"measurement": "IC50", "setting": "[2]", "result": "2.5 µM (active)"}, {"measurement": "EC50", "setting": "[9]", "result": "> 60 µM (not active)"}, {"measurement": "EC50", "setting": "[10]", "result": "3.4 µM (active)"}]}
{"compound": "COc1ccc(OC)c(/N=c2\\ssnc2Cl)c1", "values": [{"measurement": "IC50", "setting": "[7]", "result": "> 100 µM (inactive)"}, {"measurement": "IC50", "setting": "[11]", "result": "> 100 µM (inactive)"}, {"measurement": "IC50", "setting": "[12]", "result": "15.4 µM (active)"}, {"measurement": "IC50", "setting": "[8]", "result": "4.35 µM (active)"}]}
{"compound": "O=C(CCCN1C(=O)/C(=C/c2ccccc2)SC1=S)Nc1ccc(C(=O)O)c(O)c1", "values": [{"measurement": "AC50", "setting": "[13]", "result": "12.3 µM (active)"}, {"measurement": "IC50", "setting": "[14]", "result": "85 µM (active)"}, {"measurement": "IC50", "setting": "[15]", "result": "< 0.5 µM (active)"}, {"measurement": "EC50", "setting": "[16]", "result": "15.4 µM (active)"}, {"measurement": "IC50", "setting": "[17]", "result": "17.2 µM (active)"}, {"measurement": "IC50", "setting": "[18]", "result": "> 100 µM (inactive)"}, {"measurement": "IC50", "setting": "[19]", "result": "2.67 µM (active)"}, {"measurement": "IC50", "setting": "[20]", "result": "> 32 µM (inactive)"}]}
